Laboratory results taken from patent publication US12168781B2, “Production method for T cells or NK cells, medium for culturing T cells or NK cells, method for culturing T cells or NK cells, method for maintaining undifferentiated state of undifferentiated T cells, and growth-accelerating agent for T cells or NK cells” (KIRIN HOLDINGS KABUSHIKI KAISHA, priority 2018, dated 2024).
Marks after values point to notes of the source that are not given here.

Test system: T-iPS-T cells
Test: Number of viable T-iPS-T cells under feeder-free culture (CD3/CD28 Dynabeads, Cell Count Reagent SF, absorbance 450 nm/650 nm)
Type: cell-based, human
Conditions: T-iPS-T cells after 1st expansion, 6 days, DMSO control 0.225 ± 0.017
Protocol: T-iPS-T cells (1,500 cells/well) after 1st expansion were seeded and cultured in RPMI-1640 medium (SIGMA, R8758) supplemented with 15% FBS (CORNING, 35-076-CV, 35076104R), 1% PSG (SIGMA, G1146), PAA (50 μg/mL, Nacalai Tesque, 03420-52), ITS-G, IL-7 (5 ng/mL), IL-12 (50 ng/mL), IL-15 (5 ng/mL), IL-18 (50 ng/mL), IL-21 (20 ng/mL), and z-VAD-fmk (10 μM). The cells were stimulated by adding CD3/CD28 Dynabeads (Gibco, 11131D, the “Dynabeads” is a registered trademark) (4,500 beads/well) thereto, and 1,080 compounds [MedChemExpress, Apoptosis Compound Library (HY-L003), Cell Cycle/DNA Damage Compound Library (HY-L004), JAK/STAT Compound Library (HY-L008), MAPK Compound Library (HY-L010), NF-kappaB Compound Library (HY-L014), PI3K/Akt/mTOR Compound Library (HY-L015), and Wnt/Hedgehog/Notch Compound Library (HY-L020)] were added thereto (one type per well) at a final concentration of 1 μM, and then, the cells were cultured at 37° C. under 5% CO2.
DMSO (0.1%) that is a solvent for the compound was used as a control. After 6 days, the number of viable cells was measured using Cell Count Reagent SF (Nacalai Tesque, 07553) and a microplate reader (SoftMax Pro 5.X, Molecular Devices, 450 nm/650 nm).
A calibration curve for cell number was set as follows. When measuring the number of viable cells, 12-point serial dilution was performed for the same cells as those used in the screening, and the cells were seeded (0 to 1,536,000 cells/well) in RPMI-1640 medium supplemented with 15% FBS, 1% PSG, PAA, ITS-G, IL-7 (5 ng/mL) and IL-15 (5 ng/mL). The number of viable cells was measured together with the screening samples, and a calibration curve for WST-8 assay was formed.
In order to further evaluate the results obtained in Example 4, reproducibility was evaluated. As a method therefor, the same method as in Example 4 was used to carry out culturing and evaluation. As compounds, 20 compounds were selected and used among the compounds used in Example 4 including berbamine, and DMSO (0.1%) that is a solvent for the compound was used as a control. Note that in a statistical analysis, a Student's t-test was used (*: p<0.05).
The effect of a berbamine derivative on the proliferation of T cells was verified. As a method therefor, T-iPS-T cells after 1st expansion were cultured in the same manner as in Example 4, and berbamine (BBM) or each of 13 types of derivatives [BBMD1 to 13, Hebei Sundia MediTech Company Ltd.] was added thereto (one type per well) at a final concentration of 0.1 nM, 1 nM, 10 nM, 100 nM, or 1 μM, and then, the cells were cultured at 37° C. under 5% CO2. DMSO (0.1%) that is a solvent for the compound was used as a control.
After culturing for 6 days, the number of viable cells was measured using Cell Count Reagent SF (Nacalai Tesque, 07553) and a microplate reader (SoftMax Pro 5. X, Molecular Devices, 450 nm/650 nm), and the OD value was used as data. Note that in a statistical analysis, a Student's t-test was used (*: p<0.05). 1.

COc1cc2c3cc1Oc1c(OC)c(OC)cc4c1C(Cc1ccc(OS(=O)(=O)c5ccccc5)c(c1)Oc1ccc(cc1)CC3N(C)CC2)N(C)CC4 (stereo not shown) [BBMD1]
number of viable cells (OD value) (0.1 nM): 0.257 ± 0.024
number of viable cells (OD value) (1 nM): 0.268 ± 0.009 *
number of viable cells (OD value) (10 nM): 0.289 ± 0.033 *
number of viable cells (OD value) (100 nM): 0.415 ± 0.039 **
number of viable cells (OD value) (1 μM): 0.529 ± 0.101 **

COc1cc2c3cc1Oc1c(OC)c(OC)cc4c1C(Cc1ccc(CCCCBr)c(c1)Oc1ccc(cc1)CC3N(C)CC2)N(C)CC4 (stereo not shown) [BBMD2]
number of viable cells (OD value) (1 nM): 0.269 ± 0.059
number of viable cells (OD value) (10 nM): 0.295 ± 0.028 *
number of viable cells (OD value) (100 nM): 0.437 ± 0.059 **
number of viable cells (OD value) (1 μM): 0.493 ± 0.036 ***

COc1cc2c3cc1Oc1c(OC)c(OC)cc4c1C(Cc1ccc(OCc5ccc([N+](=O)[O-])cc5)c(c1)Oc1ccc(cc1)CC3N(C)CC2)N(C)CC4 (stereo not shown) [BBMD3]
number of viable cells (OD value) (0.1 nM): 0.245 ± 0.013
number of viable cells (OD value) (1 nM): 0.298 ± 0.021 *
number of viable cells (OD value) (10 nM): 0.325 ± 0.077^
number of viable cells (OD value) (100 nM): 0.581 ± 0.025 ****
number of viable cells (OD value) (1 μM): 0.195 ± 0.002

COc1cc2c3cc1Oc1c(OC)c(OC)cc4c1C(Cc1ccc(OC(=O)C(C)(C)C)c(c1)Oc1ccc(cc1)CC3N(C)CC2)N(C)CC4 (stereo not shown) [BBMD4]
number of viable cells (OD value) (0.1 nM): 0.234 ± 0.024
number of viable cells (OD value) (1 nM): 0.245 ± 0.037
number of viable cells (OD value) (10 nM): 0.286 ± 0.019 *
number of viable cells (OD value) (100 nM): 0.470 ± 0.023 ***
number of viable cells (OD value) (1 μM): 0.470 ± 0.053 **

COc1cc2c3cc1Oc1c(OC)c(OC)cc4c1C(Cc1ccc(OC(=O)c5cc6ccccc6[nH]5)c(c1)Oc1ccc(cc1)CC3N(C)CC2)N(C)CC4 (stereo not shown) [BBMD5]
number of viable cells (OD value) (0.1 nM): 0.246 ± 0.001
number of viable cells (OD value) (1 nM): 0.245 ± 0.016
number of viable cells (OD value) (10 nM): 0.285 ± 0.032 *
number of viable cells (OD value) (100 nM): 0.477 ± 0.064 **
number of viable cells (OD value) (1 μM): 0.186 ± 0.001

COc1cc2c3cc1Oc1c(OC)c(OC)cc4c1C(Cc1ccc(OC(=O)c5ccc(Br)cc5)c(c1)Oc1ccc(cc1)CC3N(C)CC2)N(C)CC4 (stereo not shown) [BBMD6]
number of viable cells (OD value) (0.1 nM): 0.248 ± 0.019
number of viable cells (OD value) (1 nM): 0.248 ± 0.016
number of viable cells (OD value) (10 nM): 0.290 ± 0.023 *
number of viable cells (OD value) (100 nM): 0.472 ± 0.077 **
number of viable cells (OD value) (1 μM): 0.208 ± 0.004

COc1cc2c3cc1Oc1c(OC)c(OC)cc4c1C(Cc1ccc(CCCCN5CCCC5)c(c1)Oc1ccc(cc1)CC3N(C)CC2)N(C)CC4 (stereo not shown) [BBMD7]
number of viable cells (OD value) (0.1 nM): 0.230 ± 0.018
number of viable cells (OD value) (1 nM): 0.266 ± 0.013 *
number of viable cells (OD value) (10 nM): 0.258 ± 0.024^
number of viable cells (OD value) (100 nM): 0.346 ± 0.041 **
number of viable cells (OD value) (1 μM): 0.550 ± 0.026 ****

COc1cc2c3cc1Oc1c(OC)c(OC)cc4c1C(Cc1ccc(OC(=O)CCNC(=O)OC(C)(C)C)c(c1)Oc1ccc(cc1)CC3N(C)CC2)N(C)CC4 (stereo not shown) [BBMD8]
number of viable cells (OD value) (0.1 nM): 0.268 ± 0.022 *
number of viable cells (OD value) (1 nM): 0.227 ± 0.028
number of viable cells (OD value) (10 nM): 0.261 ± 0.029^
number of viable cells (OD value) (100 nM): 0.326 ± 0.051 *
number of viable cells (OD value) (1 μM): 0.462 ± 0.027 ***

COc1cc2c3cc1Oc1c(OC)c(OC)cc4c1C(Cc1ccc(OCCCN)c(c1)Oc1ccc(cc1)CC3N(C)CC2)N(C)CC4 (stereo not shown) [BBMD9]
number of viable cells (OD value) (0.1 nM): 0.264 ± 0.030
number of viable cells (OD value) (1 nM): 0.255 ± 0.004 *
number of viable cells (OD value) (10 nM): 0.221 ± 0.017^
number of viable cells (OD value) (100 nM): 0.268 ± 0.020 *
number of viable cells (OD value) (1 μM): 0.328 ± 0.016**

COc1ccc(C(=O)NCCCOc2ccc3cc2Oc2ccc(cc2)CC2c4cc(c(OC)cc4CCN2C)Oc2c(OC)c(OC)cc4c2C(C3)N(C)CC4)cc1 (stereo not shown) [BBMD10]
number of viable cells (OD value) (0.1 nM): 0.255 ± 0.013
number of viable cells (OD value) (1 nM): 0.274 ± 0.007 **
number of viable cells (OD value) (10 nM): 0.295 ± 0.023 *
number of viable cells (OD value) (100 nM): 0.494 ± 0.038 ***
number of viable cells (OD value) (1 μM): 0.301 ± 0.008 **

COc1cc2c3cc1Oc1c(OC)c(OC)cc4c1C(Cc1ccc(OCCCNC(=O)c5ccc(-c6ccc(C=O)cc6)cc5)c(c1)Oc1ccc(cc1)CC3N(C)CC2)N(C)CC4 (stereo not shown) [BBMD11]
number of viable cells (OD value) (0.1 nM): 0.270 ± 0.099
number of viable cells (OD value) (1 nM): 0.242 ± 0.046
number of viable cells (OD value) (10 nM): 0.300 ± 0.081^
number of viable cells (OD value) (100 nM): 0.425 ± 0.079 *
number of viable cells (OD value) (1 μM): 0.239 ± 0.076

COc1cc2c3cc1Oc1c(OC)c(OC)cc4c1C(Cc1ccc(OCCCNC(=O)c5cscn5)c(c1)Oc1ccc(cc1)CC3N(C)CC2)N(C)CC4 (stereo not shown) [BBMD12]
number of viable cells (OD value) (0.1 nM): 0.185 ± 0.072
number of viable cells (OD value) (1 nM): 0.234 ± 0.027
number of viable cells (OD value) (10 nM): 0.235 ± 0.010^
number of viable cells (OD value) (100 nM): 0.257 ± 0.008 *
number of viable cells (OD value) (1 μM): 0.561 ± 0.035 ***

COc1cc2c3cc1Oc1c(OC)c(OC)cc4c1C(Cc1ccc(OC(=O)c5ccccc5)c(c1)Oc1ccc(cc1)CC3N(C)CC2)N(C)CC4 (stereo not shown) [BBMD13]
number of viable cells (OD value) (0.1 nM): 0.253 ± 0.022
number of viable cells (OD value) (1 nM): 0.292 ± 0.001 **
number of viable cells (OD value) (10 nM): 0.260 ± 0.011 *
number of viable cells (OD value) (100 nM): 0.412 ± 0.085 *
number of viable cells (OD value) (1 μM): 0.288 ± 0.041
